From patent publication US20230348442A1, “GALECTIN-3 INHIBITING 2-HYDROXYCYCLOALKANE-1-CARBAMOYL DERIVATIVES” (Idorsia Pharmaceuticals Ltd, priority 2020, published 2023)

Each molecule was assayed against human Gal-3 (hGal-3) (Homo sapiens (Human), UniProt P17931) (assay: competitive binding assay: binding of biotinylated hGal-3 to microplate-adsorbed asialofetuin (ASF), spectrophotometric). Details: Activity on hGal-3; mean values of several measurements.
In short: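 Compounds diluted in DMSO competed with biotinylated hGal-3 or hGal-1 (300-1000 ng/mL) for binding to plate-adsorbed asialofetuin for 3 h at 4° C. Bound galectin was detected with streptavidin-peroxidase (80 ng/mL, 1 h, 4° C) and ABTS substrate; IC50 reported as mean of several measurements.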

Sequence of human Gal-3 (hGal-3) (P17931 whole entry): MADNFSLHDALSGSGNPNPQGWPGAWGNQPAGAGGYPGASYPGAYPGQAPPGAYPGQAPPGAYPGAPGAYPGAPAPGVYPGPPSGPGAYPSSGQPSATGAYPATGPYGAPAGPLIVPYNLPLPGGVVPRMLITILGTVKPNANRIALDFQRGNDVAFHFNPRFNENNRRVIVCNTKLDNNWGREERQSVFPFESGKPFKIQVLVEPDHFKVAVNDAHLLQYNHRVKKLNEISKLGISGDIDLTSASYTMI

Row | IC50 | Molecule
1 | 79.2 nM | CO[C@@H]1[C@@H](n2cc(-c3cc(F)c(Cl)c(Cl)c3)nn2)[C@@H](O)[C@@H](CO)O[C@H]1C(=O)N(c1cc(Cl)cc(C#N)c1)[C@H]1CC[C@@H]1O [Example 2.17.4, (2R,3R,4S,5R,6R)-N-(3-chloro-5-cyanophenyl)-4-(4-(3,4-dichloro-5-fluorophenyl)-1H-1,2,3-triazol-1-yl)-5-hydroxy-N-((1S,2S)-2-hydroxycyclobutyl)-6-(hydroxymethyl)-3-methoxytetrahydro-2H-pyran-2-carboxamide]
2 | 224 nM | CO[C@@H]1[C@@H](n2cc(-c3cc(F)c(Cl)c(Cl)c3)nn2)[C@@H](O)[C@@H](CO)O[C@H]1C(=O)N(c1cc(Cl)cc(C#N)c1)[C@@H]1CC[C@H]1O [Example 2.17.4R, (2R,3R,4S,5R,6R)-N-(3-chloro-5-cyanophenyl)-4-(4-(3,4-dichloro-5-fluorophenyl)-1H-1,2,3-triazol-1-yl)-5-hydroxy-N-((1R,2R)-2-hydroxycyclobutyl)-6-(hydroxymethyl)-3-methoxytetrahydro-2H-pyran-2-carboxamide]
3 | 56 nM | CO[C@@H]1[C@@H](n2cc(-c3cc(F)c(Cl)c(Cl)c3)nn2)[C@@H](O)[C@@H](CO)O[C@H]1C(=O)N(c1cc(Br)cc(C#N)c1)[C@H]1CC[C@@H]1O [Example 2.17.5, (2R,3R,4S,5R,6R)-N-(3-bromo-5-cyanophenyl)-4-(4-(3,4-dichloro-5-fluorophenyl)-1H-1,2,3-triazol-1-yl)-5-hydroxy-N-((1S,2S)-2-hydroxycyclobutyl)-6-(hydroxymethyl)-3-methoxytetrahydro-2H-pyran-2-carboxamide]
4 | 254 nM | CO[C@@H]1[C@@H](n2cc(-c3cc(F)c(Cl)c(Cl)c3)nn2)[C@@H](O)[C@@H](CO)O[C@H]1C(=O)N(c1cc(Br)cc(C#N)c1)[C@@H]1CC[C@H]1O [Example 2.17.5R, (2R,3R,4S,5R,6R)-N-(3-bromo-5-cyanophenyl)-4-(4-(3,4-dichloro-5-fluorophenyl)-1H-1,2,3-triazol-1-yl)-5-hydroxy-N-((1R,2R)-2-hydroxycyclobutyl)-6-(hydroxymethyl)-3-methoxytetrahydro-2H-pyran-2-carboxamide]
5 | 29 nM | CC(=O)O[C@@H]1[C@@H](n2cc(-c3cc(F)c(F)c(F)c3)nn2)[C@@H](O)[C@@H](CO)O[C@H]1C(=O)N(c1cc(Cl)cc(Cl)c1)[C@H]1CC[C@@H]1O [Example 2A.1.2, (2R,3R,4S,5R,6R)-2-((3,5-dichlorophenyl)((1S,2S)-2-hydroxycyclobutyl)carbamoyl)-5-hydroxy-6-(hydroxymethyl)-4-(4-(3,4,5-trifluorophenyl)-1H-1,2,3-triazol-1-yl)tetrahydro-2H-pyran-3-yl acetate]
6 | 36.2 nM | CC(=O)O[C@@H]1[C@@H](n2cc(-c3cc(F)c(F)c(F)c3)nn2)[C@@H](O)[C@@H](CO)O[C@H]1C(=O)N(c1cc(Cl)cc(C#N)c1)[C@H]1CC[C@@H]1O [Example 2A.1.4, (2R,3R,4S,5R,6R)-2-((3-chloro-5-cyanophenyl)((1S,2S)-2-hydroxycyclobutyl)carbamoyl)-5-hydroxy-6-(hydroxymethyl)-4-(4-(3,4,5-trifluorophenyl)-1H-1,2,3-triazol-1-yl)tetrahydro-2H-pyran-3-yl acetate]
7 | 80.6 nM | CC(=O)O[C@@H]1[C@@H](n2cc(-c3cc(F)c(F)c(F)c3)nn2)[C@@H](O)[C@@H](CO)O[C@H]1C(=O)N(c1cc(Cl)cc(C#N)c1)[C@@H]1CC[C@H]1O [Example 2A.1.4R, (2R,3R,4S,5R,6R)-2-((3-chloro-5-cyanophenyl)((1R,2R)-2-hydroxycyclobutyl)carbamoyl)-5-hydroxy-6-(hydroxymethyl)-4-(4-(3,4,5-trifluorophenyl)-1H-1,2,3-triazol-1-yl)tetrahydro-2H-pyran-3-yl acetate]
8 | 67.5 nM | O=C([C@@H]1O[C@H](CO)[C@H](O)[C@H](n2cc(-c3cc(F)c(F)c(F)c3)nn2)[C@H]1O)N(c1cc(Cl)cc(Cl)c1)[C@H]1CC[C@@H]1O [Example 2H.1.2, (2R,3R,4S,5R,6R)-N-(3,5-dichlorophenyl)-3,5-dihydroxy-N-((1S,2S)-2-hydroxycyclobutyl)-6-(hydroxymethyl)-4-(4-(3,4,5-trifluorophenyl)-1H-1,2,3-triazol-1-yl)tetrahydro-2H-pyran-2-carboxamide]
9 | 33.8 nM | N#Cc1cc(Cl)cc(N(C(=O)[C@@H]2O[C@H](CO)[C@H](O)[C@H](n3cc(-c4cc(F)c(F)c(F)c4)nn3)[C@H]2O)[C@H]2CC[C@@H]2O)c1 [Example 2H.1.4, (2R,3R,4S,5R,6R)-N-(3-chloro-5-cyanophenyl)-3,5-dihydroxy-N-((1S,2S)-2-hydroxycyclobutyl)-6-(hydroxymethyl)-4-(4-(3,4,5-trifluorophenyl)-1H-1,2,3-triazol-1-yl)tetrahydro-2H-pyran-2-carboxamide]
10 | 29.4 nM | (2R,3R,4S,5R,6R)-N-(3,5-dichlorophenyl)-3,5-dihydroxy-N-((1S,2S)-2-hydroxycyclopentyl)-6-(hydroxymethyl)-4-(4-(3,4,5-trifluorophenyl)-1H-1,2,3-triazol-1-yl)tetrahydro-2H-pyran-2-carboxamide [Example 1H.1.2]
